Test results published in patent US5620890A, “Monoclonal antibodies to hygromycin B and the method of making the same” (The United States of America as represented by the …, priority 1995, dated 1997).

Key:
Type in all cases: binding, mouse
[1] = system: monoclonal antibody HB-13 (IgG1, kappa; hybridoma ATCC HB-12167); experiment: Competitive indirect ELISA (CI-ELISA), solid-phase antigen HB-SMPB-S-BSA; conditions: for cross-reactivity with the HB-13 antibody: competitor concentration of 50 ppm; for average IC50: free competitor in CI-ELISA
Protocol: The supernatant culture fluid from the cloned hybridomas may also be screened to select for those producing antibodies having a high affinity for hygromycin B. Affinity may be measured using a variety of well known techniques, such as ELISA, RIA or equilibrium dialysis using labelled hygromycin B. Competitive indirect ELISA (CI-ELISA) is preferred, and is conducted at a final antibody concentration (dilution from tissue culture supernatant) to give 50% of maximal binding to a hygromycin B coated substrate or assay well. In accordance with this embodiment, the antibody containing supernatant is added to a hygromycin B conjugate-coated solid substrate such as the wells of an assay plate, together with a range of concentrations of free hygromycin B as a competitor. Following incubation and washing, bound antibody in the wells is determined in the same manner as the indirect-ELISA. Percent inhibition may be calculated as (1-B/Bo)×100 where B is the optical density (OD) of a well with a competitor and Bo is the mean OD of the wells without competitor (control). […] However, for even greater accuracy, the affinity may be alternatively measured at 50% inhibition (IC50).
A competitive indirect ELISA (CI-ELISA) was used to determine the sensitivity and specificity of the monoclonal antibodies for binding hygromycin B. Microtiter plates were coated with HB-SMPB-S-BSA (400 ng/well) and blocked with 3% non-fat milk solution as described above. After washing five times with 0.05% Tween 20 in distilled water, 100 μL of hygromycin B standard in assay buffer (0.1M Tris, 0.15M NaCl, 0.05% Tween 20, 1% BSA, pH 7.5) and 100 μL antiserum (diluted 1:60 in assay buffer) were added to each well and incubated for 90 min at 37° C. Unbound antibody was removed by washing five times with the 0.05% Tween 20-water solution. Next, 50 μL of goat anti-mouse IgG-peroxidase conjugate (1:500 dilution) was added to each well. After a 60 min incubation at 37° C., the plates were washed ten times with 0.05% Tween 20, and bound antibody-peroxidase conjugate was determined using ABTS. Absorbance was read at 405 nm.
Each point represents the average of 6 replicates. […] The mean intraassay IC50 coefficient of variation (CV) was 7.8% (n=3), while a mean interassay IC50 coefficient of variation of 7.0% (n=3) was observed. […] HB-13 was also characterized as to its ability to recognize related aminoglycoside antibiotics, including spiramycin, gentamicin, kanamycin, amikacin and tylosin.

[2] = system: monoclonal antibodies to hygromycin B obtained with the extended immunization protocol (including HB-3, HB-7, HB-13); experiment: Competitive indirect ELISA (CI-ELISA); conditions: range over antibodies from extended immunization protocol
Protocol: (§1) The supernatant culture fluid from the cloned hybridomas may also be screened to select for those producing antibodies having a high affinity for hygromycin B. Affinity may be measured using a variety of well known techniques, such as ELISA, RIA or equilibrium dialysis using labelled hygromycin B. Competitive indirect ELISA (CI-ELISA) is preferred, and is conducted at a final antibody concentration (dilution from tissue culture supernatant) to give 50% of maximal binding to a hygromycin B coated substrate or assay well. […]
In the extended immunization schedule, female BALB/c mice were immunized with 75 μg ip injections every two weeks for a total of three injections. On day 35, the mice were bled so that serum titers and antibody specificities could be determined. […]
(§2) A competitive indirect ELISA (CI-ELISA) was used to determine the sensitivity and specificity of the monoclonal antibodies for binding hygromycin B. Microtiter plates were coated with HB-SMPB-S-BSA (400 ng/well) and blocked with 3% non-fat milk solution as described above. […] After a 60 min incubation at 37° C., the plates were washed ten times with 0.05% Tween 20, and bound antibody-peroxidase conjugate was determined using ABTS. Absorbance was read at 405 nm. […]

[3] = system: monoclonal antibodies to hygromycin B obtained with the short immunization protocol; experiment: Competitive indirect ELISA (CI-ELISA); conditions: range over antibodies from short immunization protocol
Protocol: as §1
In the short immunization schedule, female BALB/c mice (6-8 weeks of age) were injected intraperitoneally (ip) with 75 μg of HB-SMPB-S-OVA (in 0.2 mL physiological saline/RIBI adjuvant). […] One week after the second injection, the mice were bled and serum titers were determined. […]
as §2

Molecule | cross-reactivity with the HB-13 antibody [1] | other results
spiramycin | None of these compounds were observed to cross-react | –
NC[C@H]1O[C@H](O[C@H]2[C@H](O)[C@@H](O[C@H]3O[C@H](CO)[C@@H](O)[C@H](N)[C@H]3O)[C@H](N)C[C@@H]2N)[C@H](O)[C@@H](O)[C@@H]1O [kanamycin] | None of these compounds were observed to cross-react | –
CC[C@H]1OC(=O)C[C@@H](O)[C@H](C)[C@@H](O[C@@H]2O[C@H](C)[C@@H](O[C@H]3C[C@@](C)(O)[C@@H](O)[C@H](C)O3)[C@H](N(C)C)[C@H]2O)[C@@H](CC=O)C[C@@H](C)C(=O)/C=C/C(C)=C/[C@@H]1CO[C@@H]1O[C@H](C)[C@@H](O)[C@@H](OC)[C@H]1OC [tylosin] | None of these compounds were observed to cross-react | –
CNC1CC(N)C(O)C(OC2OC(CO)C(O)C3OC4(OC(C(N)CO)C(O)C(O)C4O)OC23)C1O (stereo not drawn) [hygromycin B] | – | IC50 [2]: 0.7-1 ppm; average IC50 ([1]; each point average of 6 replicates): 76.2 ng/well; average IC50 ([1]; same value expressed as ppm): 0.762 ppm; IC50 [3]: 10-100 ppm
NCC[C@H](O)C(=O)N[C@@H]1C[C@H](N)[C@@H](O[C@H]2O[C@H](CN)[C@@H](O)[C@H](O)[C@H]2O)[C@H](O)[C@H]1O[C@H]1O[C@H](CO)[C@@H](O)[C@H](N)[C@H]1O [amikacin] | None of these compounds were observed to cross-react | –
gentamicin | None of these compounds were observed to cross-react | –
